Measured values published in ChEMBL document CHEMBL1125268, “Targeting renal dipeptidase (dehydropeptidase I) for inactivation by mechanism-based inactivators” (J Med Chem, 1991).

How the values were obtained:
[1] = target: T1, Dipeptidase 1 (Sus scrofa) (UniProt P22412); experiment: The catalytic constant of the enzyme Renal dipeptidase was reported.
T1 sequence (whole entry): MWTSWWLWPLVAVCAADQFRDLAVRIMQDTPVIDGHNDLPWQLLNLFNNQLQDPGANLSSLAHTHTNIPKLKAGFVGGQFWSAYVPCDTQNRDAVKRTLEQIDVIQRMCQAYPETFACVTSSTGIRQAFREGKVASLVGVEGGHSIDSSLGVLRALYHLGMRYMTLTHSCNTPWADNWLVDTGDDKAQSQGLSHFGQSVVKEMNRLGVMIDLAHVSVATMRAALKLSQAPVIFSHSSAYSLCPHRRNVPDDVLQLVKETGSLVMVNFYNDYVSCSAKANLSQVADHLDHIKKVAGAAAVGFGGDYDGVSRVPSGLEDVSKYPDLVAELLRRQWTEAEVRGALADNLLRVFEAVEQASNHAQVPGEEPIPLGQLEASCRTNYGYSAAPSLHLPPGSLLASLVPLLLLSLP

[2] = target: T1, Dipeptidase 1 (Sus scrofa); experiment: The double -reciprocal analysis of the pseudo-first -order inactivation rates verses the inhibitor concentrations were calculated for Renal dipeptidase
[3] = target: T1, Dipeptidase 1 (Sus scrofa); experiment: The catalytic constant of the enzyme Inactivator of Renal dipeptidase was reported.
[4] = target: T1, Dipeptidase 1 (Sus scrofa); experiment: The double -reciprocal analysis of the pseudo-first -order inactivation rates verses the inhibitor concentrations were calculated for Inactivator of Renal dipeptidase
[5] = compound: C=C(NC(=O)CC#N)C(=O)O; experiment: Michaelis-Menten constant was reported for the compound against Inactivator of Renal dipeptidase
[6] = substrate: C=C(NC(=O)CBr)C(=O)O; experiment: (§1) Michaelis-Menten constant was reported for the compound against Renal dipeptidase
[7] = substrate: C=C(CC(=O)CC#N)C(=O)O; experiment: as §1

## C=C(NC(=O)CBr)C(=O)O
[1]
  k cat: 0.538 s⁻¹

## C=C(CC(=O)CC#N)C(=O)O
[2]
  K inact: 0.151 min⁻¹
[1]
  k cat: 0.55 s⁻¹

## C=C(NC(=O)CC#N)C(=O)O
[3]
  k cat: 0.25 s⁻¹
[4]
  K inact: 0.277 min⁻¹

B1: Dipeptidase 1 (Sus scrofa), P22412 (protein)
chain: MWTSWWLWPLVAVCAADQFRDLAVRIMQDTPVIDGHNDLPWQLLNLFNNQLQDPGANLSSLAHTHTNIPKLKAGFVGGQFWSAYVPCDTQNRDAVKRTLEQIDVIQRMCQAYPETFACVTSSTGIRQAFREGKVASLVGVEGGHSIDSSLGVLRALYHLGMRYMTLTHSCNTPWADNWLVDTGDDKAQSQGLSHFGQSVVKEMNRLGVMIDLAHVSVATMRAALKLSQAPVIFSHSSAYSLCPHRRNVPDDVLQLVKETGSLVMVNFYNDYVSCSAKANLSQVADHLDHIKKVAGAAAVGFGGDYDGVSRVPSGLEDVSKYPDLVAELLRRQWTEAEVRGALADNLLRVFEAVEQASNHAQVPGEEPIPLGQLEASCRTNYGYSAAPSLHLPPGSLLASLVPLLLLSLP
[5]
  Km: 416 µM
[6]
  Km: 740 µM
[7]
  Km: 10300 µM
